Measured values reported in patent publication US8993526B2, “Method for counteracting the perception of sweat malodour by decreasing the function of carboxylic acid-binding olfactory receptors” (ChemCom S.A., priority 2011, dated 2015).

Key:
Assay type in all cases: cell-based
Conditions in all cases: tested at 1 mM, 316 μM, 100 μM; hit = luciferase activity >= median + 2 standard deviations
OR56A5 = target: T1, OR56A5 (Homo sapiens, UniProt P0C7T3, R311K/V104M); assay: CRE-luciferase reporter assay, OR56A5 in HEK293T-RTP1A1/RTP2 cells
T1 construct: expressed in transfected cells; host or cells: HEK293T-RTP1A1/RTP2
T1 sequence (P0C7T3 1-313 V104M/R311K): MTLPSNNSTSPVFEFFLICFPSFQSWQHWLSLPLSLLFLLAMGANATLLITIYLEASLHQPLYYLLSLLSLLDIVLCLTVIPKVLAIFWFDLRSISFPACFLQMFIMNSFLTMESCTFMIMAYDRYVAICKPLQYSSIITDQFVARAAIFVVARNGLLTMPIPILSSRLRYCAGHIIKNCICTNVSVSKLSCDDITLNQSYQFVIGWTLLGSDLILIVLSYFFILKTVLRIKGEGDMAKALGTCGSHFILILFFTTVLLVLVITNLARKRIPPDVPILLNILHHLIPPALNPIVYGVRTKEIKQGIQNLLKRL
Procedure: (§1) Cells were maintained in minimal essential medium (EMEM, Lonza) containing 10% fetal bovine serum (M10). HEK293T-RTP1A1/RTP2 cells were generated by transfecting HEK293T with an expression vector containing the sequences of the chaperone proteins RTP1A1 and RTP2 and a resistance gene to puromycin, using Lipofectamine 2000. A recombinant cell population was selected by adding 10 μg/ml of puromycin into the culture medium. Monoclonal populations were further obtained by limit dilution procedure. Briefly, a cell suspension was diluted to contain 1 cell per ml and this dilution was dispatched in poly-D-lysine-coated 96 wells plates (200 μl of dilution per well). After 5 days of culture, the presence and number of cell colonies per well was checked under a phase contrast microscopic. After 5 additional days of culture, wells containing a single colony were harvested and each collected population was amplified independently.
(§2) For screening experiments, stock solutions of odorant molecules were diluted in EMEM disposed in 96-well plates. Plates containing the tested molecules (1 molecule/well) at a concentration of 2 mM, at a concentration of 632 μM and at a concentration of 200 μM were prepared.
(§3) For concentration-response analysis, serial dilutions of the tested molecules were prepared from stock solutions in EMEM plated into 96-well plates.
(§4) For the initial deorphanisation screening and dose-response analysis, a Luciferase-based gene reporter assay (Promega, Leiden, The Nederlands) was used as described in Saito et al. (2004). Briefly, cells were platted on poly-D-lysine-coated 96-well plates (BD Bioscience, Erembodegem-Dorp, Belgium) and transfected with a plasmid containing the CRE-luciferase and a plasmid containing the olfactory receptor. Sixteen hours after transfection, the culture medium was replaced by serum-free EMEM containing the tested ligand at a determined concentration. After four hours of incubation at 37° C. degree, cells were lysed and processed for luminescence measurement according to the manufacturer's protocols. Luminescene emission was recorded on a Spectra Max M5 reader (Molecular Devices, Sunnyvale, Calif.). Results were expressed as percentage of the response induced by 10 μM of the adenylate cyclase activator Forskolin.
(§5) Each molecule was tested at 3 different concentrations (1 mM, 316 μM, 100 μM). The different molecules of the tested libraries were disposed at the same concentration into 96 well plates (1 well/molecule) containing cells expressing the receptor of interest. The activity of the tested molecules was measured using the lucifierase activity as explained above. The median luciferase activity induced by the tested molecules and the associated standard deviation were determined. Putatively active molecules (hits) were defined as molecules inducing a luciferase activity higher or equal to the median+2 standard deviations.
(§6) The hits were validated by concentration-response analysis. Semi-logarithmic serial dilutions of hit molecules, from 1 mM to 316 nM, were tested on the responding ORs using the luciferase assay as described above.

OR52B2 = target: T2, OR52B2 (Homo sapiens, UniProt Q96RD2); assay: CRE-luciferase reporter assay, OR52B2 in HEK293T-RTP1A1/RTP2 cells
T2 construct: expressed in transfected cells; host or cells: HEK293T-RTP1A1/RTP2
T2 sequence (Q96RD2 1-323): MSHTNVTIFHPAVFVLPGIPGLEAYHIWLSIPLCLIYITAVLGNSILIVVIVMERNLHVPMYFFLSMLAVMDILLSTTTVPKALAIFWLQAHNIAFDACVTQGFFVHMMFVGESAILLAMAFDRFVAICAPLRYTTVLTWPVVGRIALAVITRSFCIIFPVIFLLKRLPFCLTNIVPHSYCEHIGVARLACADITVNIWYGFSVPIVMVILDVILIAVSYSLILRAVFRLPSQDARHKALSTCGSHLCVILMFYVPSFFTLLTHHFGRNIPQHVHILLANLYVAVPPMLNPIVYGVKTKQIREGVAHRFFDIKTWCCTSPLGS
Procedure: as §1, §2, §3, §4, §5, §6

OR51I2 = target: T3, OR51I2 (Homo sapiens, UniProt Q9H344, T134A); assay: CRE-luciferase reporter assay, OR51I2 in HEK293T-RTP1A1/RTP2 cells
T3 construct: expressed in transfected cells; host or cells: HEK293T-RTP1A1/RTP2
T3 sequence (Q9H344 1-312 T134A): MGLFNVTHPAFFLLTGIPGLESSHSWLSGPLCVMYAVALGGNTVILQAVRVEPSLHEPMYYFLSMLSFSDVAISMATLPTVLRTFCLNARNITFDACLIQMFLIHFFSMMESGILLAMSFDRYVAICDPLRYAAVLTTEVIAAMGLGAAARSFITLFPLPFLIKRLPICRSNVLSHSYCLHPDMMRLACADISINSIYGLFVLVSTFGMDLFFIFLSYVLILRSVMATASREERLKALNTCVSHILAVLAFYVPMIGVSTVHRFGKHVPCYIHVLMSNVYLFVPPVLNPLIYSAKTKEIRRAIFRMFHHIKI
Procedure: as §1, §2, §3, §4, §5, §6

OR52L1 = target: T4, OR52L1 (Homo sapiens, UniProt Q8NGH7, R140C/S130L); assay: CRE-luciferase reporter assay, OR52L1 in HEK293T-RTP1A1/RTP2 cells
T4 construct: expressed in transfected cells; host or cells: HEK293T-RTP1A1/RTP2
T4 sequence (Q8NGH7 1-329 S130L/R140C): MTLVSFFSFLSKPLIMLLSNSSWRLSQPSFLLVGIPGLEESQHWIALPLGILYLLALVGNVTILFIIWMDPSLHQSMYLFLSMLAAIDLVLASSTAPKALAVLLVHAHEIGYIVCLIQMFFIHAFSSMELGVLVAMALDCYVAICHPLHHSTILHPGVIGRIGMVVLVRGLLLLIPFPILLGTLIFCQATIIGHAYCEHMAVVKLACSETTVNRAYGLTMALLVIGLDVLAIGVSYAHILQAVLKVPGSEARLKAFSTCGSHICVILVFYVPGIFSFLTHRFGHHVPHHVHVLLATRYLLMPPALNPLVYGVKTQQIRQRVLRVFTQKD
Procedure: as §1, with “independently. For screening experiments, stock solutions of odorant molecules were diluted in EMEM disposed in 96-well plates. Plates containing the tested molecules (1 molecule/well) at a concentration of 2 mM, at a concentration of 632 μM and at a concentration of 200 μM were prepared. For concentration-response analysis, serial dilutions of the tested molecules were prepared from stock solutions in EMEM plated into 96-well plates. […]” for “independently.”

OR52E8 = target: T5, OR52E8 (Homo sapiens, UniProt Q6IFG1); assay: CRE-luciferase reporter assay, OR52E8 in HEK293T-RTP1A1/RTP2 cells
T5 construct: expressed in transfected cells; host or cells: HEK293T-RTP1A1/RTP2
Procedure: as §1, with “After 5 days of culture, the presence and number of cell colonies per well was checked under a phase contrast microscopic. After 5 additional days of culture, wells containing a single colony were harvested and each collected population was amplified independently.” left out
as §4, with “Briefly, cells were platted on poly-D-lysine-coated 96-well plates (BD Bioscience, Erembodegem-Dorp, Belgium) and transfected with a plasmid containing the CRE-luciferase and a plasmid containing the olfactory receptor.” left out, “Forskolin. […]” for “Forskolin.”

OR52A5 = target: T6, OR52A5 (Homo sapiens, UniProt Q9H2C5); assay: CRE-luciferase reporter assay, OR52A5 in HEK293T-RTP1A1/RTP2 cells
T6 construct: expressed in transfected cells; host or cells: HEK293T-RTP1A1/RTP2
T6 sequence (Q9H2C5 1-314 limits assumed): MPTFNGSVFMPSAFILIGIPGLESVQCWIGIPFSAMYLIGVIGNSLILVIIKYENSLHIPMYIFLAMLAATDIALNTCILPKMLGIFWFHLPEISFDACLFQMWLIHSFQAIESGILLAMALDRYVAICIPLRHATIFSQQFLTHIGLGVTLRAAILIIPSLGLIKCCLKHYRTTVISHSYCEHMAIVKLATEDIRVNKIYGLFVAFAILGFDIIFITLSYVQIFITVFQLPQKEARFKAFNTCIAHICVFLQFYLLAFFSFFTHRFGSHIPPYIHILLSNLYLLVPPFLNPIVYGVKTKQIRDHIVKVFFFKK
Procedure: as §1, with “After 5 days of culture, the presence and number of cell colonies per well was checked under a phase contrast microscopic. After 5 additional days of culture, wells containing a single colony were harvested and each collected population was amplified independently.” left out
as §4, with “Briefly, cells were platted on poly-D-lysine-coated 96-well plates (BD Bioscience, Erembodegem-Dorp, Belgium) and transfected with a plasmid containing the CRE-luciferase and a plasmid containing the olfactory receptor.” left out, “Forskolin. […]” for “Forskolin.”

OR52E1 = target: T7, OR52E1 (Homo sapiens, UniProt Q8NGJ3, F254L/Y278C); assay: CRE-luciferase reporter assay, OR52E1 in HEK293T-RTP1A1/RTP2 cells
T7 construct: expressed in transfected cells; host or cells: HEK293T-RTP1A1/RTP2
Procedure: as §1, with “independently. For screening experiments, stock solutions of odorant molecules were diluted in EMEM disposed in 96-well plates. Plates containing the tested molecules (1 molecule/well) at a concentration of 2 mM, at a concentration of 632 μM and at a concentration of 200 μM were prepared. For concentration-response analysis, serial dilutions of the tested molecules were prepared from stock solutions in EMEM plated into 96-well plates. […]” for “independently.”

T7 sequence (Q8NGJ3 whole entry F254L/Y278C): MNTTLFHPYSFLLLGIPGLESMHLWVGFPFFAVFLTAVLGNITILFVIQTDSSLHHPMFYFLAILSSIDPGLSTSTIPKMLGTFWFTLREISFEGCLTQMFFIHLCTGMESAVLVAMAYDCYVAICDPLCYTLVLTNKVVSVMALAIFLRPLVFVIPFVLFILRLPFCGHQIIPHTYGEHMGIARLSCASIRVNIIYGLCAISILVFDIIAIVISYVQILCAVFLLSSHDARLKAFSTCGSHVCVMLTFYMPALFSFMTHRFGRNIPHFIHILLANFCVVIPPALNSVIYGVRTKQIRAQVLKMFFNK
T5 sequence (Q6IFG1 with tags, fused parts or gaps): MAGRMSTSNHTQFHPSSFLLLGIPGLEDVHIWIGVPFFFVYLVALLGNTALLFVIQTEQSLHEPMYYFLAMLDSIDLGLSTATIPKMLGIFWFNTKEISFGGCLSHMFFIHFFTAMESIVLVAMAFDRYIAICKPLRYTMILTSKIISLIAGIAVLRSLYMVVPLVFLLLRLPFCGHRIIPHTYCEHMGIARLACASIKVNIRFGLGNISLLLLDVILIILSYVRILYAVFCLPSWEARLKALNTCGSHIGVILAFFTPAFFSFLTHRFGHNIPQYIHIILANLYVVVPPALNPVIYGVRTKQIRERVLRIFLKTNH

SMILES | activation of OR56A5 (hit in luciferase assay) (OR56A5) | activation of OR52B2 (hit in luciferase assay) (OR52B2) | activation of OR51I2 (hit in luciferase assay) (OR51I2) | also measured
CCCCCCCCC(=O)O [nonanoic acid] | activation | activation |  | 
CCCCCCC(=O)O [heptanoic acid] | activation | activation |  | 
CCCCC(C)C(=O)O (stereo not shown) [2-methylhexanoic acid] |  |  | activation | 
CCCCC(=O)O [pentanoic acid] |  |  | activation | activation of OR52L1 (hit in luciferase assay) (OR52L1): activation
CCCC(C)(O)CC(=O)O (stereo not shown) [3-hydroxy-3-methylhexanoic acid] |  |  |  | activation of OR52E8 (hit in luciferase assay) (OR52E8): activation
CCCCCCCCCC(=O)O [decanoic acid] | activation | activation |  | 
O=C(O)c1ccccc1 [benzoic acid] |  |  | activation | 
CC(C)CC(=O)O [isovaleric acid] |  |  | activation | 
CCCCCCCCCCC(=O)O [undecanoic acid] | activation | activation |  | 
CCCCCC(=O)O [hexanoic acid] | activation | activation | activation | 
CCCCCC(C)C(=O)O (stereo not shown) [2-methylheptanoic acid] | activation |  |  | 
CCC/C(C)=C/C(=O)O [(E)-3-methyl-2-hexanoic acid] |  |  | activation | 
CCCCC(CC)CCC(=O)O (stereo not shown) [4-ethyloctanoic acid] |  |  |  | activation of OR52A5 (hit in luciferase assay) (OR52A5): activation
CCCCCCCC(=O)O [octanoic acid] | activation | activation |  | 
CCCC(C)CC(=O)O (stereo not shown) [3-methylhexanoic acid] |  |  | activation | 
CCCC(=O)O [butanoic acid] |  |  | activation | activation of OR52E1 (hit in luciferase assay) (OR52E1): activation
